Key:
THR beta-LBD = biological target: T1, THR beta-LBD (Homo sapiens, UniProt P10828); experiment: THR-β Coactivator Peptide Recruitment Assay (LanthaScreen TR-FRET); type: biochemical; details: TR-FRET coactivator recruitment, THR beta-LBD 0.5 nM; for EC50: read-out: THRβ EC50
T1 construct: THR beta-LBD (the final concentration is 0.5 nM) was added to the 384-well assay plate; purchased Invitrogen PV4686
T1 sequence (P10828 217-461 limits assumed): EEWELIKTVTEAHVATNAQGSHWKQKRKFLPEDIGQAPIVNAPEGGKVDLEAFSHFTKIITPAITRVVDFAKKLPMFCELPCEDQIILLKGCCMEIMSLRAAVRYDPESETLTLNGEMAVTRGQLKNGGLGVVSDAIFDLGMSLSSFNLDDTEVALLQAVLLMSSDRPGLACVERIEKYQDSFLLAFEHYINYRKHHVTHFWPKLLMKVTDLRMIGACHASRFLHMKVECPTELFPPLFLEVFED
Method in brief: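 Agonist-driven coactivator recruitment read as a 520/495 nm TR-FRET emission ratio after 2 h at room temperature. Final concentrations: THR beta-LBD 0.5 nM, fluorescein-SRC2-2 peptide 0.1 nM, terbium anti-GST antibody 2 nM. EC50 from four-parameter dose-response fitting.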

THR alpha-LBD = biological target: T2, THR alpha-LBD (Homo sapiens, UniProt P10827); experiment: THR-α Coactivator Peptide Recruitment Assay (LanthaScreen TR-FRET); type: biochemical; details: TR-FRET coactivator recruitment, THR alpha-LBD 0.25 nM; for EC50: read-out: THRα EC50
T2 construct: except that THR alpha-LBD of a final concentration 0.25 nM was used; purchased Invitrogen PV4687
Method in brief: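 TR-FRET coactivator recruitment with THR alpha-LBD at 0.25 nM final, Fluorescein-SRC2-2 peptide 0.1 nM and Tb-labeled anti-GST antibody 2 nM; 2 h incubation at room temperature. 520/495 nm emission ratio fitted to a four-parameter sigmoidal curve to give EC50.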

T2 sequence (P10827 163-410 isoform P10827-2 limits assumed, other chains not shown): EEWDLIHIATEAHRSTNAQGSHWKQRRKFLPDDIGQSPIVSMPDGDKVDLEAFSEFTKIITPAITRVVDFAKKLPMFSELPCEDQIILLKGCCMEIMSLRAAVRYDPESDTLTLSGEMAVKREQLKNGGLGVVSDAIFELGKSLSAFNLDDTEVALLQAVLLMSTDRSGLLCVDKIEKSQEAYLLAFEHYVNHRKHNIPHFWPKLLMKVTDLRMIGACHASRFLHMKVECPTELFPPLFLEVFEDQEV

Row | THRβ Emax (THR beta-LBD) | EC50 (THR beta-LBD) | THRα Emax (THR alpha-LBD) | EC50 (THR alpha-LBD) | SMILES
1 | C (<75) | 0.02 to 0.1 µM | B (40~85) | > 1 µM | O=C(NC1CCCC1)C1(NS(=O)(=O)c2cc(Oc3c(Cl)cc(-n4nc(C(F)F)c(=O)[nH]c4=O)cc3Cl)ncc2O)CC1 [Compound 116, N-cyclopentyl-1-((2-(2,6-dichloro-4-(6-(difluoromethyl)-3,5-dioxo-4,5-dihydro-1,2,4-triazin-2(3H)-yl)phenoxy)-5-hydroxypyridine)-4-sulfonamido)cyclopropane-1-carboxamide]
2 | C (<75) | 0.02 to 0.1 µM | C (<40) | > 1 µM | O=C(NCC(F)F)C1(NS(=O)(=O)c2cc(Oc3c(Cl)cc(-n4nc(C(F)F)c(=O)[nH]c4=O)cc3Cl)ncc2O)CC1 [Compound 117, 1-((2-(2,6-dichloro-4-(6-(difluoromethyl)-3,5-dioxo-4,5-dihydro-1,2,4-triazin-2(3H)-yl)phenoxy)-5-hydroxypyridine)-4-sulfonamido)-N-(2,2-difluoroethyl)cyclopropane-1-carboxamide]
3 | B (75~90) | > 0.1 µM | C (<40) | > 1 µM | O=C(N1CCCC1)C1(NS(=O)(=O)c2cc(Oc3c(Cl)cc(-n4nc(C(F)F)c(=O)[nH]c4=O)cc3Cl)ncc2O)CC1 [Compound 118, 2-(2,6-dichloro-4-(6-(difluoromethyl)-3,5-dioxo-4,5-dihydro-1,2,4-triazin-2(3H)-yl)phenoxy)-5-hydroxy-N-(1-(pyrrolidine-1-carbonyl)cyclopropyl)pyridine-4-sulfonamide]
4 | C (<75) | > 0.1 µM | C (<40) | > 1 µM | O=C(CNS(=O)(=O)c1cc(Oc2c(Cl)cc(-n3nc(C(F)F)c(=O)[nH]c3=O)cc2Cl)ncc1O)NC1CCC1 [Compound 119, N-cyclobutyl-2-[[2-[2,6-dichloro-4-[6-(difluoromethyl)-3,5-dioxo-1,2,4-triazin-2-yl]-phenoxy]-5-hydroxy-4-pyridyl]-sulfonylamino]-acetamide]
5 | C (<75) | > 0.1 µM | C (<40) | > 1 µM | O=C(CNS(=O)(=O)c1cc(Oc2c(Cl)cc(-n3nc(C(F)F)c(=O)[nH]c3=O)cc2Cl)ncc1O)NC1CC1 [Compound 120, N-cyclopropyl-2-((2-(2,6-dichloro-4-(6-(difluoromethyl)-3,5-dioxo-4,5-dihydro-1,2,4-triazin-2(3H)-yl)phenoxy)-5-hydroxypyridine)-4-sulfonamido)acetamide]
6 | C (<75) | > 0.1 µM | C (<40) | > 1 µM | O=C(NC1CC1)C1(NS(=O)(=O)c2cc(Oc3c(Cl)cc(-n4nc(C(F)F)c(=O)[nH]c4=O)cc3Cl)ncc2O)CCC1 [Compound 121, N-cyclopropyl-1-((2-(2,6-dichloro-4-(6-(difluoromethyl)-3,5-dioxo-4,5-dihydro-1,2,4-triazin-2(3H)-yl)phenoxy)-5-hydroxypyridine)-4-sulfonamido)cyclobutane-1-carboxamide]
7 | C (<75) | 0.002 to 0.02 µM | B (40~85) | 0.2 to 1 µM | CC1(C)CC(NS(=O)(=O)c2cc(Oc3c(Cl)cc(-n4nc(C(F)F)c(=O)[nH]c4=O)cc3Cl)ncc2O)C1 [Compound 122]
8 | A (90~110) | < 0.002 µM | A (85~110) | 0.002 to 0.2 µM | O=c1[nH]c(=O)n(-c2cc(Cl)c(Oc3cc(S(=O)(=O)NC4CCC4)c(O)cn3)c(Cl)c2)nc1C(F)F [Compound 123, N-cyclobutyl-2-(2,6-dichloro-4-(6-(difluoromethyl)-3,5-dioxo-4,5-dihydro-1,2,4-triazin-2(3H)-yl)phenoxy)-5-hydroxypyridine-4-sulfonamide]
9 | B (75~90) | < 0.002 µM | B (40~85) | 0.002 to 0.2 µM | O=c1[nH]c(=O)n(-c2cc(Cl)c(Oc3cc(S(=O)(=O)NC4CCCC4)c(O)cn3)c(Cl)c2)nc1C(F)F [Compound 124, N-cyclopentyl-2-(2,6-dichloro-4-(6-(difluoromethyl)-3,5-dioxo-4,5-dihydro-1,2,4-triazin-2(3H)-yl)phenoxy)-5-hydroxypyridine-4-sulfonamide]
10 | B (75~90) | 0.002 to 0.02 µM | B (40~85) | 0.2 to 1 µM | N#C[C@H]1C[C@@H](NS(=O)(=O)c2cc(Oc3c(Cl)cc(-n4nc(C(F)F)c(=O)[nH]c4=O)cc3Cl)ncc2O)C1 [Compound 125, N-((1s,3s)-3-cyanocyclobutyl)-2-(2,6-dichloro-4-(6-(difluoromethyl)-3,5-dioxo-4,5-dihydro-1,2,4-triazin-2(3H)-yl)phenoxy)-5-hydroxypyridine-4-sulfonamide]
11 | C (<75) | 0.02 to 0.1 µM | C (<40) | 0.2 to 1 µM | CNS(=O)(=O)c1cc(Oc2c(Cl)cc(-n3nc(C(F)F)c(=O)[nH]c3=O)cc2Cl)ncc1OC [Compound 127, 2-(2,6-dichloro-4-(6-(difluoromethyl)-3,5-dioxo-4,5-dihydro-1,2,4-triazin-2(3H)-yl)phenoxy)-5-methoxy-N-methylpyridine-4-sulfonamide]
12 | B (75~90) | < 0.002 µM | A (85~110) | 0.002 to 0.2 µM | O=c1[nH]c(=O)n(-c2cc(Cl)c(Oc3cc(S(=O)(=O)C4CC4)c(O)cn3)c(Cl)c2)nc1C(F)F [Compound 128, 2-[3,5-dichloro-4-[(4-cyclopropylsulfonyl-5-hydroxy-2-pyridyl)oxy]phenyl]-6-(difluoromethyl)-1,2,4-triazine-3,5-dione]
13 | A (90~110) | 0.002 to 0.02 µM | B (40~85) | 0.002 to 0.2 µM | N#Cc1nn(-c2cc(Cl)c(Oc3cc(S(=O)(=O)C4CC4)c(O)cn3)c(Cl)c2)c(=O)[nH]c1=O [Compound 129, 2-(3,5-dichloro-4-((4-(cyclopropylsulfonyl)-5-hydroxypyridin-2-yl)oxy)phenyl)-3,5-dioxo-2,3,4,5-tetrahydro-1,2,4-triazine-6-carbonitrile]
14 | B (75~90) | 0.002 to 0.02 µM | B (40~85) | 0.2 to 1 µM | N#C[C@H]1C[C@H](NS(=O)(=O)c2cc(Oc3c(Cl)cc(-n4nc(C(F)F)c(=O)[nH]c4=O)cc3Cl)ncc2O)C1 [Compound 130, N-(3-cyanocyclobutyl)-2-[2,6-dichloro-4-[6-(difluoromethyl)-3,5-dioxo-1,2,4-triazin-2-yl]phenoxy]-5-hydroxy-pyridine-4-sulfonamide]
15 | A (90~110) | < 0.002 µM | A (85~110) | 0.002 to 0.2 µM | O=c1[nH]c(=O)n(-c2cc(Cl)c(Oc3cc(S(=O)(=O)NC4CC4)c(O)cn3)c(Cl)c2)nc1C(F)F [Compound 131, N-cyclopropyl-2-(2,6-dichloro-4-(6-(difluoromethyl)-3,5-dioxo-4,5-dihydro-1,2,4-triazin-2(3H)-yl)phenoxy)-5-hydroxypyridine-4-sulfonamide]
16 | A (90~110) | 0.002 to 0.02 µM | B (40~85) | 0.2 to 1 µM | O=c1[nH]c(=O)n(-c2cc(Cl)c(Oc3cc(S(=O)(=O)N[C@H]4C[C@@H](O)C4)c(O)cn3)c(Cl)c2)nc1C(F)F [Compound 132, 2-(2,6-dichloro-4-(6-(difluoromethyl)-3,5-dioxo-4,5-dihydro-1,2,4-triazin-2(3H)-yl)phenoxy)-5-hydroxy-N-((1s,3s)-3-hydroxycyclobutyl)pyridine-4-sulfonamide]
17 | B (75~90) | 0.02 to 0.1 µM | B (40~85) | > 1 µM | O=c1[nH]c(=O)n(-c2cc(Cl)c(Oc3cc(S(=O)(=O)NC[C@H]4C[C@H](O)C4)c(O)cn3)c(Cl)c2)nc1C(F)F [Compound 133, 2-(2,6-dichloro-4-(6-(difluoromethyl)-3,5-dioxo-4,5-dihydro-1,2,4-triazin-2(3H)-yl)phenoxy)-5-hydroxy-N-(((1r,3r)-3-hydroxycyclobutyl)methyl)pyridine-4-sulfonamide]
18 | B (75~90) | 0.02 to 0.1 µM | B (40~85) | > 1 µM | O=c1[nH]c(=O)n(-c2cc(Cl)c(Oc3cc(S(=O)(=O)NC[C@H]4C[C@@H](O)C4)c(O)cn3)c(Cl)c2)nc1C(F)F [Compound 134, 2-(2,6-dichloro-4-(6-(difluoromethyl)-3,5-dioxo-4,5-dihydro-1,2,4-triazin-2(3H)-yl)phenoxy)-5-hydroxy-N-(((1s,3s)-3-hydroxycyclobutyl)methyl)pyridine-4-sulfonamide]
19 | A (90~110) | 0.002 to 0.02 µM | A (85~110) | 0.002 to 0.2 µM | N#CC1(NS(=O)(=O)c2cc(Oc3c(Cl)cc(-n4nc(C(F)F)c(=O)[nH]c4=O)cc3Cl)ncc2O)CC1 [Compound 135, N-(1-cyanocyclopropyl)-2-(2,6-dichloro-4-(6-(difluoromethyl)-3,5-dioxo-4,5-dihydro-1,2,4-triazin-2(3H)-yl)phenoxy)-5-hydroxypyridine-4-sulfonamide]
